Key:
Format in all cases: cell-based
Botrytis cinerea = Botrytis cinerea (gray mold) in vitro radial growth test on potato dextrose agar; settings: 300 ppm; 7 days, 22° C., 90% relative humidity
Fusarium culmorum = Fusarium culmorum (foot rot of cereals) in vitro radial growth test on potato dextrose agar; settings: 300 ppm; 7 days, 25° C., 60% relative humidity
Description: Compounds were dissolved in 0.3% dimethyl sulfoxide and then added to potato dextrose agar medium just prior to dispensing it into petri dishes. 5 mL medium with the compound in the desired concentration was dispensed into 60 mm sterile petri-plates. After solidification, each plate was seeded with a 5 mm size mycelial disc taken from the periphery of an actively growing virulent culture plate. Plates were incubated in growth chambers at 25° C. temperature and 60% relative humidity for seven days and then the radial growth was measured and compared to the one of the untreated control.

Parastagonospora nodorum = Parastagonospora nodorum (PARANO) microtiter growth inhibition assay, OD600; settings: 18° C., 15-18 days, read-out: control (growth inhibition by OD600)
Description: Potato dextrose (PDB) liquid medium (Difco) containing a […] (10^5 spores/ml) spore suspension was prepared. For the inhibition assay, each test compound was solved in dimethyl sulfoxide. 100 μl of the test media-solution was added to a 96-well microtiter plate, consequently, the same volume (100 μl) of spore suspension was added to the well making the final test concentrations and the plate was incubated at 18° C. for 15-18 days. The growth inhibition was evaluated by measuring the OD600. Percent inhibition was calculated with the below formula: I=([…])*100 Where T=treatment, C═control, and B=blank

CS(=O)(=NC(=O)c1ccn(-c2ccc(-c3noc(C(F)(F)F)n3)cc2)c1)c1ccncc1F (stereo not drawn) [Compound 28, N-((3-fluoropyridin-4-yl)(methyl)(oxo)-λ^6-sulfanylidene)-1-(4-(5-(trifluoromethyl)-1,2,4-oxadiazol-3-yl)phenyl)-1H-pyrrole-3-carboxamide]
≥ 70%: control (radial growth compared to untreated control) (Botrytis cinerea) | control (radial growth compared to untreated control) (Fusarium culmorum) | inhibition at 300 ppm (Parastagonospora nodorum)
